Measurements from patent US8207176B2 (Glaxo Group Limited, priority 2005, dated 2012).
Where a name gives a salt, the structure may show the parent alone.

Legend:
[1] = target: T1, Recombinant human p38α (MKK6-activated) (Homo sapiens, UniProt Q16539); experiment: Time-resolved fluorescence resonance energy transfer (TR-FRET) kinase assay (standard or low volume); type: biochemical; design: key: Compounds are considered active in this assay if they demonstrate a pIC50 of greater than 4.6 up to about a pIC50 of greater than 10.0; conditions: MKK6-activated p38α 100 pM, GST-ATF2 400 nM, 120 minutes at room temperature; either assay format
T1 construct: His; made in house
Description: It is noted that there are two assay formats shown above for the Fluorescence anisotropy kinase binding assay. The only difference between these two assays is the volume used and the plate type. […] The results described herein may have been performed in either assay format and are not differentiated as to which. […] TR-FRET Assay Time-Resolved Fluorescence Resonance Energy Transfer Kinase Standard Assay Recombinant human p38α was expressed as a His-tagged protein. To activate this protein, 3 μM unactivated p38α was incubated in 200 mM Hepes pH 7.4, 625 mM NaCl, 1 mM DTT with 27 nM active MKK6 (Upstate), 1 mM ATP and 10 mM MgCl2 The activity of the MKK6-activated p38α was assessed using a time-resolved fluorescence resonance energy transfer (TR-FRET) assay. Biotinylated-GST-ATF2 (residues 19-96, 400 nM final), ATP ([…]) and MgCl2 (5 mM final) in assay buffer (40 mM HEPES pH 7.4, 1 mM DTT) were added to wells containing 1 ul of various concentrations of compound or DMSO vehicle (3% final) in NUNC 384 well black plate. The reaction was initiated by the addition of MKK6-activated p38 (100 pM final) to give a total volume of 30 ul. The reaction was incubated for 120 minutes at room temperature, then terminated by the addition of 15 μl of 100 mM EDTA pH 7.4. Detection reagent (15 μl) in buffer (100 mM HEPES pH 7.4, 150 mM NaCl, 0.1% w/v BSA, 1 mM DTT) containing antiphosphothreonine-ATF2-71 polyclonal antibody (Cell Signalling Technology, Beverly Mass., USA) labelled with W-1024 europium chelate (Wallac OY, Turku, Finland), and APC-labelled streptavidin (Prozyme, San Leandro, Calif., USA) was added and the reaction was further incubated for 60 minutes at room temperature. The degree of phosphorylation of GST-ATF2 was measured using a Packard Discovery plate reader (Perkin-Elmer Life Sciences, Pangbourne, UK) as a ratio of specific 665 nm energy transfer signal to reference europium 620 nm signal. Time-Resolved Fluorescence Resonance Energy Transfer Kinase Low Volume Assay Recombinant human p38α was expressed as a His-tagged protein. To activate this protein, 3 μM unactivated p38α was incubated in 200 mM Hepes pH7.4, 625 mM NaCl, 1 mM DTT with 27 nM active MKK6 (Upstate), 1 mM ATP and 10 mM MgCl2 The activity of the MKK6-activated p38α was assessed using a time-resolved fluorescence resonance energy transfer (TR-FRET) assay. Biotinylated-GST-ATF2 (residues 19-96, 400 nM final), ATP (125 μM final) and MgCl2 ([…]) in assay buffer (40 mM HEPES pH 7.4, 1 mM DTT) were added to wells containing 0.1 μl of various concentrations of compound or DMSO vehicle (1.7% final) in Greiner low volume 384 well black plate. The reaction was initiated by the addition of MKK6-activated p38α (100 pM final) to give a total volume of 6 μl. The reaction was incubated for 120 minutes at room temperature, then terminated by the addition of 3 μl of detection reagent in buffer (100 mM HEPES pH 7.4, 150 mM NaCl, 0.1% w/v BSA, 1 mM DTT, 100 mM EDTA) containing antiphosphothreonine-ATF2-71 polyclonal antibody (Cell Signalling Technology, Beverly Mass., USA) labelled with W-1024 europium chelate (Wallac OY, Turku, Finland), and APC-labelled streptavidin (Prozyme, San Leandro, Calif., USA). The reaction was further incubated for 60 minutes at room temperature. The degree of phosphorylation of GST-ATF2 was measured using a BMG Rubystar plate reader (BMG, UK) as a ratio of specific 665 nm energy transfer signal to reference europium 620 nm signal. It is noted that there are two assay formats shown above for the Time-resolved fluorescence resonance energy transfer kinase assay. The only difference between these two assays is the volume used and the plate type. […] The results described herein may have been performed in either assay format and are not differentiated as to which. […] For purposes herein the HTRF assay and the Fluorescence anisotropy kinase binding assay: […]

[2] = tested on: influx of neutrophils to the lung in LPS-challenged rats; experiment: Rat LPS neutrophilia model; type: in vivo; conditions: intratracheal, LPS aerosol 100 ug/ml 15 min, lavage 4 hours later, in at least one of the range of conditions tested, significant p<0.05, nonsignificant p>0.05
Procedure, shortened: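 Compound was given intratracheally (200 ul, suspension or dry powder) 15 min–24 hours before a 15 min aerosol of LPS (100 ug/ml). Bronchoalveolar lavage was taken 4 hours after challenge for differential cell counts. Values are % inhibition of neutrophils versus no-compound controls at a given concentration and pretreat time.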

T1 sequence (Q16539 whole entry): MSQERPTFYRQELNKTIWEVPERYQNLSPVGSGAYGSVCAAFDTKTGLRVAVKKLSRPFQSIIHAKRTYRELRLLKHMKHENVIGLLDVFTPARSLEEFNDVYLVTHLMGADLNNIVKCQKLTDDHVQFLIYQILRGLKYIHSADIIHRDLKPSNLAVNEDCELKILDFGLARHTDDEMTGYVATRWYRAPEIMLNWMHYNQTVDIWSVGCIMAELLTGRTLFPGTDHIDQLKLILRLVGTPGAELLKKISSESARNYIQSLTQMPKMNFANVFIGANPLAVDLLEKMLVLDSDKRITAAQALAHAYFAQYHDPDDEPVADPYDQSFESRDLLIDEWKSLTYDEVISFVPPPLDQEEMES

Row | Compound | pIC50, reported as active [1] | inhibition of neutrophilia (neutrophil levels in lung lavage relative to no compound controls) [2]
1 | Cc1ccc(NC(=O)c2ccsc2)cc1-c1nc(NC2CC(C)(C)NC(C)(C)C2)nc2c1ccc(=O)n2-c1c(F)cccc1F [31(e), N-(3-{8-(2,6-difluorophenyl)-7-oxo-2-[(2,2,6,6-tetramethyl-4-piperidinyl)amino]-7,8-dihydropyrido[2,3-d]pyrimidin-4-yl}-4-methylphenyl)-3-thiophenecarboxamide] | active | statistically significant inhibition
2 | CCCNC(=O)c1ccc(C)c(-c2nc(NCCNC)nc3c2ccc(=O)n3-c2c(F)cccc2F)c1 [56(d), 3-(8-(2,6-difluorophenyl)-2-{[2-(methylamino)ethyl]amino}-7-oxo-7,8-dihydropyrido[2,3-d]pyrimidin-4-yl)-4-methyl-N-propylbenzamide] | active | statistically significant inhibition
3 | Cc1ccc(C(=O)Nc2nccs2)cc1-c1nc(NCc2ncc[nH]2)nc2c1ccc(=O)n2-c1c(F)cccc1F [79(c), 3-{8-(2,6-difluorophenyl)-2-[(1H-imidazol-2-ylmethyl)amino]-7-oxo-7,8-dihydropyrido[2,3-d]pyrimidin-4-yl}-4-methyl-N-1,3-thiazol-2-ylbenzamide] | active | statistically significant inhibition
4 | CNC1CCN(c2nc(-c3cc(C(=O)NC(C)C)ccc3C)c3ccc(=O)n(-c4c(F)cccc4F)c3n2)CC1 [113(b), 3-{8-(2,6-difluorophenyl)-2-[4-(methylamino)-1-piperidinyl]-7-oxo-7,8-dihydropyrido[2,3-d]pyrimidin-4-yl}-4-methyl-N-(1-methylethyl)benzamide] | active | statistically nonsignificant inhibition
5 | CCN(CC)CCCNc1nc(-c2cc(C(=O)NC(C)C)ccc2C)c2ccc(=O)n(-c3c(F)cccc3F)c2n1 [118(b), 3-[2-{[3-(diethylamino)propyl]amino}-8-(2,6-difluorophenyl)-7-oxo-7,8-dihydropyrido[2,3-d]pyrimidin-4-yl]-4-methyl-N-(1-methylethyl)benzamide] | active | –
6 | CCN(CC)CCCNc1nc(-c2cccc(C(=O)Nc3nccs3)c2C)c2ccc(=O)n(-c3c(F)cccc3F)c2n1 [150(d), 3-[2-{[3-(diethylamino)propyl]amino}-8-(2,6-difluorophenyl)-7-oxo-7,8-dihydropyrido[2,3-d]pyrimidin-4-yl]-2-methyl-N-1,3-thiazol-2-ylbenzamide] | active | –
7 | Cc1ccc(C(=O)O)cc1-c1nc(N2CCC(N3CCC(C)CC3)CC2)nc2c1ccc(=O)n2-c1c(F)cccc1F [163(b), 3-[8-(2,6-difluorophenyl)-2-(4-methyl-1,4′-bipiperidin-1′-yl)-7-oxo-7,8-dihydropyrido[2,3-d]pyrimidin-4-yl]-4-methylbenzoic acid] | active | –
8 | CCN(CC)CCCNc1nc(-c2cc(C(=O)O)cc(F)c2C)c2ccc(=O)n(-c3c(F)cccc3F)c2n1 [179(b), 3-[2-{[3-(diethylamino)propyl]amino}-8-(2,6-difluorophenyl)-7-oxo-7,8-dihydropyrido[2,3-d]pyrimidin-4-yl]-5-fluoro-4-methylbenzoic acid trifluoroacetate] | active | –
9 | CCN(CC)CCCNc1nc(-c2cc(C(=O)NC(C)C)cc(F)c2C)c2ccc(=O)n(-c3c(F)cccc3F)c2n1 [179(c), 3-[2-{[3-(diethylamino)propyl]amino}-8-(2,6-difluorophenyl)-7-oxo-7,8-dihydropyrido[2,3-d]pyrimidin-4-yl]-5-fluoro-4-methyl-N-(1-methylethyl)benzamide] | active | –
10 | CCCNC(=O)c1ccc(-c2nc(NCCCN(CC)CC)nc3c2ccc(=O)n3-c2c(F)cccc2F)cc1 [188(b), 4-[2-{[3-(diethylamino)propyl]amino}-8-(2,6-difluorophenyl)-7-oxo-7,8-dihydropyrido[2,3-d]pyrimidin-4-yl]-N-propylbenzamide] | active | –
11 | CCN(CC)CCCNc1nc(-c2cccc(C(=O)O)c2)c2ccc(=O)n(-c3c(F)cccc3F)c2n1 [193(a), 3-[2-{[3-(diethylamino)propyl]amino}-8-(2,6-difluorophenyl)-7-oxo-7,8-dihydropyrido[2,3-d]pyrimidin-4-yl]benzoic acid] | active | –
12 | CCN(CC)CCCNc1nc(-c2cccc(C(=O)NC)c2)c2ccc(=O)n(-c3c(F)cccc3F)c2n1 [193(b), 3-[2-{[3-(diethylamino)propyl]amino}-8-(2,6-difluorophenyl)-7-oxo-7,8-dihydropyrido[2,3-d]pyrimidin-4-yl]-N-methylbenzamide] | active | –
13 | Cc1ccc(NC(=O)c2cccs2)cc1-c1nc(NC2CC(C)(C)NC(C)(C)C2)nc2c1ccc(=O)n2-c1c(F)cccc1F [Example 9, N-(3-{8-(2,6-difluorophenyl)-7-oxo-2-[(2,2,6,6-tetramethyl-4-piperidinyl)amino]-7,8-dihydropyrido[2,3-d]pyrimidin-4-yl}-4-methylphenyl)-2-thiophenecarboxamide] | active | –
14 | Cc1ccc(NC(=O)c2cccs2)cc1-c1nc(NCc2ncc[nH]2)nc2c1ccc(=O)n2-c1c(F)cccc1F [Example 10, N-(3-{8-(2,6-difluorophenyl)-2-[(1H-imidazol-2-ylmethyl)amino]-7-oxo-7,8-dihydropyrido[2,3-d]pyrimidin-4-yl}-4-methylphenyl)-2-thiophenecarboxamide] | active | –
15 | Cc1ccc(NC(=O)c2ccc(Cl)nc2)cc1-c1nc(N2CCC(N)CC2)nc2c1ccc(=O)n2-c1c(F)cccc1F [Example 15, N-{3-[2-(4-amino-1-piperidinyl)-8-(2,6-difluorophenyl)-7-oxo-7,8-dihydropyrido[2,3-d]pyrimidin-4-yl]-4-methylphenyl}-6-chloro-3-pyridinecarboxamide] | active | –
16 | Cc1ccc(C(=O)NC2CC2)cc1-c1nc(NC(CO)CO)nc2c1ccc(=O)n2-c1c(F)cccc1F [Example 36, N-cyclopropyl-3-(8-(2,6-difluorophenyl)-2-{[2-hydroxy-1-(hydroxymethyl)ethyl]-amino}-7-oxo-7,8-dihydropyrido[2,3-d]pyrimidin-4-yl)-4-methylbenzamide] | active | –
17 | Cc1ccc(C(=O)NC(C)C)cc1-c1nc(NCc2ncc[nH]2)nc2c1ccc(=O)n2-c1c(F)cccc1F [Example 74, 3-{8-(2,6-difluorophenyl)-2-[(1H-imidazol-2-ylmethyl)amino]-7-oxo-7,8-dihydropyrido[2,3-d]pyrimidin-4-yl}-4-methyl-N-(1-methylethyl)benzamide] | active | –
